# Several values for one entry are separate records, joined by “and”; a condition that tells them apart may be missing. Identical values can stand only once. Like-named read-outs stand apart in the source and are kept apart here.
# Key:
# [1] = test system: S. venezuelae; test: S. venezuelae sporulation inhibition disk diffusion assay (whi phenotype, SEM); type: cell-based, Streptomyces venezuelae; settings: for Sporulation inhibition: disk with 10 μL antibiotic, 48 h, white halo in sub-MIC region; for Aerial hyphae septation by SEM: lawn immediately adjacent to the zone of inhibition
# Method: A lawn of S. venezuelae spores was plated on MYM agar plates and allowed to dry. For the initial screen, 2 μL of each molecule at 2.5 mM was spotted directly to the agar plate. For known antibiotics or follow-up screening, 10 μL of molecule was added to a drug disk, allowed to dry, and placed on the agar plate. The S. venezuelae plate was incubated at 30°C for 48 hours and photographed. The whi phenotype was identified by eye. Hits were selected based on their ability to induce a whi phenotype at sub-inhibitory concentrations and scored by eye on the size of the induced whi region and the zone of inhibition.
# To prepare samples for SEM, the agar plate containing a lawn of S. venezuelae was cut at the edge of the zone of inhibition and fixed with 2% glutaraldehyde in 0.1% sodium cacodylate buffer followed by sputter coating with gold. Images were obtained and processed using a FEI XL30 ESEM. The contrast of the resulting images was adjusted to highlight the appearance or lack of spore formation.
# [2] = test system: S. aureus; test: Minimum inhibitory concentration, broth dilution, S. aureus strains; type: cell-based, Staphylococcus aureus
# Method: (§1) The minimum inhibitory concentration (MIC) defines the lowest concentration of a compound required to inhibit the growth. A single colony of the bacteria being tested was grown in 5 mL of liquid growth media. Following overnight growth, the culture was diluted 100-fold into fresh media and incubated at 37°C until the cells reached mid-log phase (OD600 of 0.3 to 0.5). The cells were diluted 10,000-fold into fresh media and the MIC determined for each of the strains by adding 2 μL of the diluted compound to 198 μL of the diluted cells in a clear 96-well plate. The plates were incubated at 37°C overnight and the optical density at 600 nm was measured for each well. All MIC assays were performed in triplicate.
# [3] = test system: E. coli; test: Minimum inhibitory concentration, broth dilution, E. coli strains; type: cell-based, Escherichia coli
# Method: as §1
# [4] = biological target: T1, S. aureus gyrase (Staphylococcus aureus, UniProt P0A0K8+P20831); test: S. aureus gyrase supercoiling; type: biochemical; settings: purified S. aureus gyrase, wild-type
# T1 construct: purchased Inspiralis Inc. SAS4001 (supercoiling kit); SAGC001 (cleavage assay kit)
# Method: (§2) 1 U of DNA gyrase was incubated with 0.5 μg of relaxed pBR322 DNA in a 30 μl reaction at 37°C for 30 minutes under the following conditions: 35 mM Tris.HCl (pH 7.5), 24 mM KCl, 4 mM MgCl2, 2 mM DTT, 1.8 mM Spermidine, 1 mM ATP, 6.5% (w/v) glycerol and 0.1 mg/mL BSA. Each reaction was stopped by the addition of 30 μl chloroform/iso-amyl alcohol (24:1) and 20 μl Stop Dye (40% sucrose, 100 mM Tris.HCl (pH 7.5), 10 mM EDTA, 0.5 μg/mL bromophenol blue), before being loaded on a 1.0% TAE (Tris.acetate […], EDTA […]) agarose gel. Gels run at 90 V for 2 hours. Bands were visualized by ethidium staining for 20 minutes and destaining in water for 20 minutes. Gels were scanned using a gel documentation system (GeneGenius, Syngene, Cambridge, UK) and percent inhibition levels obtained with gel scanning software (GeneTools, Syngene, Cambridge,UK).
# (§3) As for E. coli gyrase except assay conditions were: 40 mM HEPES. KOH (pH 7.6), 10 mM magnesium acetate, 10 mM DTT, 2 mM ATP, 500 mM potassium glutamate, and 0.05 mg/mL BSA. Gels run at 80 V for 3 hours.
# [5] = biological target: T2, E. coli gyrase (Escherichia coli, UniProt P0AES4+P0AES6); test: E. coli gyrase supercoiling; type: biochemical; settings: purified E. coli gyrase
# T2 construct: purchased Inspiralis Inc. K0001
# Method: as §2
# [6] = biological target: T3, S. aureus topoisomerase IV (Staphylococcus aureus, UniProt P0C1S7+P0C1U9); test: S. aureus topoisomerase IV decatenation; type: biochemical; settings: purified S. aureus topoisomerase IV; no activity up to; read-out: IC50, topoisomerase IV-catalyzed decatenation
# T3 construct: purchased Inspiralis Inc. SAD4001
# Method: 1 U of topoisomerase IV was incubated with 200 ng kDNA DNA in a 30 μl reaction at 37 C for 30 minutes under the following conditions: 50 mM HEPES-KOH (pH 7.6), 100 mM potassium glutamate, 10 mM magnesium acetate, 10 mM dithiothreitol, 1 mM ATP and 50 μg/mL BSA. Each reaction was stopped by the addition of 30 μl chloroform/iso-amyl alcohol (24:1) and 20 μl Stop Dye, before being loaded on a 1.0% TAE agarose gel. Gels run at 90 V for 2 hours.
# As for E coli topoisomerase IV except assay conditions were: 50 mM Tris-HCl (7.5), 5 mM MgCl2, 5 mM DTT, 1.5 mM ATP, 350 mM potassium glutamate and 0.05 mg/mL BSA. Gels run at 80 V for 2 hours.
# [7] = biological target: T1, S. aureus gyrase; test: S. aureus gyrase cleavage; type: biochemical
# Method: 1 U of gyrase was incubated with 0.5 μg of supercoiled pBR322 DNA in a 30 μL reaction at 37 C for 30 minutes under the following conditions: 40 mM HEPES. KOH (pH 7.6), 10 mM magnesium acetate, 10 mM DTT, 100 mM potassium glutamate and 0.05 mg/mL albumin. 0.2 % SDS and 0.1 mg/mL Proteinase K were added before a further incubation at 37°C for 30 minutes. Each reaction was stopped by the addition of 30 μL chloroform/iso-amyl alcohol (24:1) and 20 μL Stop Dye, before being loaded on a 1.0% TAE agarose gel. Gels run at 80 V for 2 hours.
# [8] = biological target: T1, S. aureus gyrase; test: S. aureus gyrase relaxation; type: biochemical; settings: ATP-independent
# Method: 1 U of gyrase was incubated with 0.5 μg of supercoiled pBR322 DNA in a 30 μL reaction at 37°C for 60 minutes under the following conditions: 50 mM Tris.HCl (pH 7.5), 5 mM MgCl2,5 mM DTT, 350 mM potassium glutamate, and 0.05 mg/mL albumin. Each reaction was stopped by the addition of 30 μL chloroform/iso-amyl alcohol (24:1) and 20 μl Stop Dye, before being loaded on a 1.0% TAE agarose gel. Gels run at 80 V for 2 hours.
# [9] = biological target: T4, S. aureus gyrase GyrA S84L (Staphylococcus aureus, UniProt P0A0K8+P20831, S84L); test: Supercoiling inhibition of S. aureus gyrase mutant GyrA S84L; type: biochemical; settings: for Susceptibility of gyrase mutant GyrA S84L: S. aureus gyrase
# T4 construct: purchased Inspiralis Inc. SAAS84L01
# Method: as §2, §3
# [10] = test system: HEK293 cells; test: Toxicity against human HEK293 cells; type: cell-based
# Source text: The experimental model that we have employed is Staphyloccocus aureus strain ATCC 29213. We have used the cell line HEK293, as a control for EN-7 toxicity against human cells.
# [11] = Staphylococcus aureus, ATCC29213, S. aureus ATCC 29213 (wild-type, parent strain), read-out: MIC
# [12] = Staphylococcus aureus, ATCC29213, S. aureus parent strain (ATCC 29213), read-out: MIC
# [13] = Staphylococcus aureus, EN-7-resistant S. aureus mutants
compound,measurement,setting,value
"N#CC(C#N)=NNc1cccc(Cl)c1 [CCCP, carbonyl cyanide m-chlorophenyl hydrazone]",Sporulation inhibition,[1],−
O=C(/C=C/c1cccc2cccnc12)NNC(=O)c1cc(-c2ccccc2)on1 [EN-7],Growth inhibition (zone of inhibition),"[1]; filter disk, 10 μL of 2.5 mM",significant zone of inhibition
same,Sporulation inhibition below the MIC for growth,"[1]; filter disk, 10 μL of 2.5 mM",striking band of inhibited sporulation
same,MIC,"[2]; S. aureus clinical strain C0018, read-out: MIC",>128 µM
same,MIC,"[2]; S. aureus clinical strain C0032, read-out: MIC",>128 µM
same,MIC,"[2]; S. aureus clinical strain C0117, read-out: MIC",>128 µM
same,MIC,[2]; [11],1 µM
same,MIC,"[2]; Staphylococcus aureus, ATCC29213, nine EN-7-resistant S. aureus ATCC 29213 mutants (mut-1 to mut-9), 16 μM highest concentration tested",> 16 µM
same,MIC,"[2]; Staphylococcus aureus, ATCC29213, three S. aureus ATCC 29213 GyrB K417E allelic exchange strains",> 128 µM
same,MIC,"[2]; Staphylococcus aureus, ATCC 29213 / ATCC 33591, S. aureus three laboratory strains (ATCC 29213, TCH1516, ATCC 33591) and four clinical strains (C0017, C0024, C0023, C0019), read-out: MIC",0.4 µg/mL
same,MIC,"[2]; Staphylococcus aureus, ATCC33519, S. aureus ATCC 33519, read-out: MIC",1 µM
same,MIC,"[2]; Staphylococcus aureus, S. aureus TCH 1516, read-out: MIC",1 µM
same,MIC,"[2]; Staphylococcus aureus, S. aureus clinical strain C0017, read-out: MIC",1 µM
same,MIC,"[2]; Staphylococcus aureus, S. aureus clinical strain C0018, read-out: MIC",> 128 µM
same,MIC,"[2]; Staphylococcus aureus, S. aureus clinical strain C0019, read-out: MIC",1 µM
same,MIC,"[2]; Staphylococcus aureus, S. aureus clinical strain C0023, read-out: MIC",1 µM
same,MIC,"[2]; Staphylococcus aureus, S. aureus clinical strain C0024, read-out: MIC",1 µM
same,MIC,"[2]; Staphylococcus aureus, S. aureus clinical strain C0032, read-out: MIC",> 128 µM
same,MIC,"[2]; Staphylococcus aureus, S. aureus clinical strain C0112, read-out: MIC",4 µM
same,MIC,"[2]; Staphylococcus aureus, S. aureus clinical strain C0117, read-out: MIC",> 128 µM
same,MIC,"[3]; E. coli BW25113, read-out: MIC",>64 µM
same,MIC,"[3]; E. coli MC1061, read-out: MIC",>64 µM
same,MIC,"[3]; Escherichia coli, BW25113, E. coli BW25113, read-out: MIC",> 64 µM
same,MIC,"[3]; Escherichia coli, BW25113, E. coli BW25113 ΔtolC ΔbamB, outer-membrane and efflux-deficient",1 µM
same,MIC,"[3]; Escherichia coli, E. coli MC1061, read-out: MIC",> 64 µM
same,IC50,[4],0.085 µM
same,IC50,[5],1.75 µM
same,IC50,[6],> 100 µM
same,Occurrence of DNA nicking,"[7]; S. aureus gyrase, pBR322",does increase the occurrence of DNA nicking
same,Stabilization of gyrase-DNA double-stranded cleavage complex,"[7]; S. aureus gyrase, pBR322",does not stabilize
same,Effect on ciprofloxacin-induced formation of the double-stranded cleavage complex,[7]; co-treatment with ciprofloxacin,does not prevent
same,Inhibition of gyrase-induced DNA relaxation,[8],inhibit
same,IC50,"[8]; read-out: IC50, gyrase-induced relaxation",0.1 to 0.5 µM
same,IC50,[9],9.96 µM
same,Increase of IC50 relative to the wild-type enzyme,"[9]; GyrA S84L vs wild-type S. aureus gyrase, supercoiling inhibition",> 100 fold and ~100 fold
same,Susceptibility of gyrase mutant GyrA S84L,[9],less susceptible
same,Toxicity to human HEK293 cells,[10],no toxicity
"NC[C@H]1O[C@H](O[C@H]2[C@H](O)[C@@H](O[C@H]3O[C@H](CO)[C@@H](O)[C@H](N)[C@H]3O)[C@H](N)C[C@@H]2N)[C@H](O)[C@@H](O)[C@@H]1O [Kanamycin, kanamycin]",Sporulation inhibition,[1],−
same,Aerial hyphae septation by SEM,[1],septated aerial hyphae
"CO[C@@]12[C@H](COC(N)=O)C3=C(C(=O)C(C)=C(N)C3=O)N1C[C@@H]1N[C@@H]12 [Mitomycin C, mitomycin C]",Sporulation inhibition,[1],+
same,Aerial hyphae septation by SEM,[1],do not show any aerial hyphae septation
"CO[C@H]1/C=C/O[C@@]2(C)Oc3c(C)c(O)c4c(O)c(c(/C=N/N5CCN(C)CC5)c(O)c4c3C2=O)NC(=O)/C(C)=C\C=C\[C@H](C)[C@H](O)[C@@H](C)[C@@H](O)[C@@H](C)[C@H](OC(C)=O)[C@@H]1C [Rifampicin, rifampicin]",Sporulation inhibition,[1],−
same,Aerial hyphae septation by SEM,[1],septated aerial hyphae
"Oc1cc(Cl)ccc1Oc1ccc(Cl)cc1Cl [Triclosan, triclosan]",Sporulation inhibition,[1],−
"CN[C@H](CC(C)C)C(=O)N[C@H]1C(=O)N[C@@H](CC(N)=O)C(=O)N[C@H]2C(=O)N[C@H]3C(=O)N[C@H](C(=O)N[C@H](C(=O)O)c4cc(O)cc(O)c4-c4cc3ccc4O)[C@H](O)c3ccc(c(Cl)c3)Oc3cc2cc(c3O[C@@H]2O[C@H](CO)[C@@H](O)[C@H](O)[C@H]2O[C@H]2C[C@](C)(N)[C@H](O)[C@H](C)O2)Oc2ccc(cc2Cl)[C@H]1O [Vancomycin, vancomycin]",Sporulation inhibition,[1],−
"O=C(O)c1cn(C2CC2)c2cc(N3CCNCC3)c(F)cc2c1=O [ciprofloxacin, reference compound]",Sporulation inhibition,[1],+
same,Aerial hyphae septation by SEM,[1],do not show any aerial hyphae septation
same,MIC,[2]; [12],0.2 µg/mL
same,MIC,[2]; [13],0.2 µg/mL
"O=c1ccc2ncc(=O)n3c2n1C[C@H]3CN1CCC(NCc2cc3c(cn2)OCCC3)CC1 [gepotidacin, reference compound]",MIC,[2]; [11],0.5 µM
same,MIC,"[2]; Staphylococcus aureus, EN-7-resistant S. aureus strains with GyrB D437N (mut-7, mut-8)",32 µM
"COc1c(N2C[C@@H]3CCCN[C@@H]3C2)c(F)cc2c(=O)c(C(=O)O)cn(C3CC3)c12 [moxifloxacin, reference compound]",Inhibition of gyrase-induced DNA relaxation,[8],inhibit
same,Susceptibility of gyrase mutant GyrA S84L,[9],less susceptible
"CO[C@@H]1[C@@H](OC(N)=O)[C@@H](O)[C@H](Oc2ccc3c(O)c(NC(=O)c4ccc(O)c(CC=C(C)C)c4)c(=O)oc3c2C)OC1(C)C [novobiocin, reference compound]",Sporulation inhibition,[1],+
same,MIC,[2]; [12],0.06 µg/mL
same,MIC,[2]; [13],0.06 µg/mL
bleomycin,Sporulation inhibition,[1],+

# Source: article PMC6856721, “Discovery of a Novel DNA Gyrase-Targeting Antibiotic through the Chemical Perturbation of Streptomyces venezuelae Sporulation” (Cell Chemical Biology, 2019)
